Data taken from patent publication US8741967B2, “Use of unsaturated sphingosine compounds as chemotherapeutic agents for the treatment of cancer” (Children's Hospital & Research Center at Oakland, priority 2007, dated 2014).
Entries after “also recorded” stand apart in the source; their conditions may differ.

Columns and labels:
Akt = Akt phosphorylation by western blotting in HT29 cells; format: cell-based, human; conditions: HT29, 10 μM, 0.5 to 24 hours
Protocol: (§1) To address the possibility that sphingadienes might promote cell death by inhibiting the PI3K/AKT pathway, the effect of sphingadienes on phosphorylation of AKT, PTEN, and the AKT substrate 4EBP, which is a regulator of protein translation, was evaluated using immunoblotting of whole cell extracts.
(§2) HT29 cells were incubated with 10 μM C14Δ4:6Sd for 0.5, 1, 3, 6 and 24 hours and the level of Akt and 4EBP phosphorylation was evaluated at each time point by western blotting. […] The ratios of phosphorylated Akt to total Akt and of phosphorylated 4EBP to total 4EBP, were quantified by densitometry using ImageJ software (ImageJ is a public domain Java image processing program inspired by NIH Image; available at rsbweb.nih.gov/ij/index.html) and are shown in FIG. 7A and FIG. 7B, respectively.
(§3) In an additional experiment, HT29 cells were treated for various time periods with 10 μM C14Δ4:6Sd or C18Δ4:8Sd and the level of phosphorylation of Akt and 4EBP was evaluated by western blotting at 0.5, 1.0 and 3.0 hours. The results confirmed that sphingadienes inhibited phosphorylation of Akt and 4EBP, even at 0.5 hours of exposure, thus inhibiting signaling through Akt and 4EBP.

4EBP [1] = test: 4EBP phosphorylation by western blotting in HT29 cells; format: cell-based, human; conditions: HT29, 10 μM, 0.5 to 24 hours
Protocol: as §1, §2, §3

HT29 cells [2] = test: Viability of HT29 colon cancer cells; format: cell-based, human
Protocol: (§4) The human colon cancer cell lines, HT29, SW480, HCT116 and DLD1 were treated with 10 μM C14Δ4:6Sd (also referred to herein as 2-aminotetradeca-4,6-diene-1,3-diol) and viability was determined at 24 hours.
HT29 cells were then incubated with various sphingadiene compounds and viability was determined at 24 hours.
HT29 cells were incubated with various concentrations of C14Δ4:6Sd and viability was determined at 24 hours or incubated with 10 μM C14Δ4:6Sd and viability was determined at various time points.
In a further experiment, HT29 cells were treated with the PI3K inhibitor wortmannin and various concentrations of C14Δ4:6Sd and viability was determined at 24 hours by MTT assay. The results confirmed synergistic inhibition of […] by C14Δ4:6Sd and wortmannin (see FIG. 8C).

SK = test: Competition studies with sphingosine and SD on sphingosine kinase; conditions: not shown, listed as C14 SD
DLD1 cells = test: Viability of DLD1 colon cancer cells; format: cell-based; conditions: Homo sapiens, DLD-1; DLD1, 10 μM, 24 hours; read-out: viability, % of controls
Protocol: as §4

4EBP [3] = test: Phosphorylated 4EBP in polyps of ApcMin/+ mice by western blotting; format: in vivo; conditions: gavage 2.5 mg/day, day 10
Protocol: (§5) Murine experiments were performed to investigate the in vivo effect of C14Δ4:6Sd on the development of polyps in intestinal tissue using an established animal model system having an inherited genetic defect underlying spontaneous multiple intestinal neoplasia (Min) (Polakis, 1997 Biochim Biophys. Acta. 1332:F127; Kucherlapati et al., 2001 Semin. Canc. Biol. 11:219; Sansom et al., 2004 Genes Dev. 18:1385). Ten 12 week-old male ApcMin/+ mice (available from Jackson Laboratory, Bar Harbor, Me.) were administered by gavage 2.5 mg/day C14Δ4:6Sd and ten mice received vehicle control. Mice were euthanized by CO2 asphyxiation and intestinal tissues harvested at day 10. Gross polyps were counted and measured (diameter). […] Polyps were further analyzed for phosphorylated 4EBP by western blotting and it was confirmed that sphingadienes inhibited 4EBP phosphorylation in vivo.

HT29 cells [4] = test: Uptake and metabolism in HT29 colon cancer cells (LC-MS); format: in vitro ADME, human; conditions: for conversion to the phosphorylated compound in intact cells / uptake rate compared with long chain sphingosine / uptake rate by cells / clearance / metabolism in cells after lipid removal: HT29, 10 μM; for conversion to the phosphorylated compound in intact cells: LC-MS; for uptake rate compared with long chain sphingosine: not shown; for uptake rate by cells: serum-free media; for clearance / metabolism in cells after lipid removal: then incubated without lipids for up to 6 hours
Protocol: In this example, the uptake and metabolism of C14 sphingadienes was compared with that of synthetic C17 sphingosine (as a substitute for endogenous C18 sphingosine which is already present in cells) and C14 sphingosine (to assess the importance of the second double bond) by HT29 colon cancer cells. Toward that end, cells were incubated with 10 μM sphingadiene in serum-free media, followed by cell harvest at various time points, lipid extraction and analysis by mass spectrometry of SD, SD-phosphate, C14 sphingosine and corresponding S1Ps.
HT29 cells were incubated for 0.25 hours, 0.5 hours and 1 hour in media containing 10 μM C14-So (Δ4) (sphingosine) or C14Δ4:6Sd (see FIG. 9A). HT29 cells were incubated for 1 hour in media containing 10 μM C14-So or C14Δ4:6Sd. Media was then removed and cells were incubated without lipids for 1, 3 and 6 hours (FIG. 9B). At each time point, cells were harvested, lipids were extracted and the cellular contents of C14-So or C14Δ4:6Sd and the corresponding phosphorylated compounds were analyzed by LC-MS.

SW480 cells [5] = test: Autophagy: GFP-LC3 fluorescence microscopy in SW480 cells; format: cell-based, human; conditions: SW480 transfected with GFP-LC3, 5 μM, 4 h
Protocol: (§6) Autophagy is a cell process used to degrade components of the cytoplasm and functions as a cell survival mechanism during nutrient deprivation (P. Codogno and A J Meijer, Cell Death Differ. 2005 November; 12 Suppl 2:1509-18). […] In order to further investigate this phenomenon, LC3 (microtubule associated protein 1 light chain 3) was used as a marker for this process.
(§7) In one experiment, SW480 cells were transfected with a GFP-LC3 construct and treated for 4 h with 5 μM C14Δ4:6Sd. […] In another experiment, SW480 cells transfected with myr-Akt were treated with various concentrations of C14Δ4:6Sd and the amount of LC3 activation (shift from LC3-1 to LC3-2) was verified by western blotting.

LC3 = LC3 activation (LC3-1 to LC3-2 shift) by western blotting in SW480 cells transfected with myr-Akt; format: cell-based, human; conditions: various concentrations
Protocol: as §6, §7

protein synthesis = test: Translational activity of HT29 cell cytosol (DUAL-LUCIFERASE Reporter Assay System); format: cell-based, human; conditions: HT29, 10 μM, 6 hours
Protocol: (§8) HT29 cells were incubated for 6 hours with 10 μM C14Δ4:6Sd and the translational activity of the cell cytosol was measured with the DUAL-LUCIFERASE® Reporter Assay System (Promega, Madison, Wis.). […] In another experiment, HT29 cells were pretreated with inhibitors of p38 (SB20350), MEK (PD98059), PI3K (LY294002) and JNK (JNK inhibitor 2) and caspase 3 activity was determined following an 18 hour incubation with 10 μM C14Δ4:6Sd.

4EBP [6] = test: 4EBP phosphorylation by western blotting in SW480 cells; format: cell-based, human; conditions: SW480, 10 μM, up to 5 hours
ApcMin/+ mice = test: Intestinal polyps in ApcMin/+ mice; format: in vivo; conditions: gavage 2.5 mg/day, day 10, versus vehicle control
Protocol: as §5

SW480 cells [7] = test: Viability of SW480 colon cancer cells; format: cell-based; conditions: Homo sapiens; SW480, 10 μM, 24 hours; read-out: viability, % of controls
Protocol: as §4

HT29 cells [8] = test: Caspase-3 activity assay (apoptosis) in HT29 colon cancer cells; format: cell-based, human
Protocol: To assess the effect of C14 sphingadienes on colon cancer cell viability, HT29, DLD1 and SW480 colon cancer cells (available from American Type Culture Collection (ATCC), Manassas, Va.) were propagated in DME-H21 plus 10% serum until ⅔ confluent. Media was then replaced with serum-free media containing 10 μM sphingadienes (SD). After 24 hours, cells were harvested, and whole cell extracts were prepared for caspase-3 activity assays. Caspase-3 activity was determined using substrate Ac-DEVD-pNA (Biomol, Plymouth Meeting, Pa.) as described (Oskouian, B., et al., Proc Natl Acad Sci USA 103: 17384-17389, 2006).
In an additional experiment, HT29 cells were treated with 10 μM sphingoid bases or ceramides and caspase-3 activity was determined at 24 hours.
HT29 cells transfected with constitutively active myristoylated Akt (myr-Akt) were treated with 10 μM C14Δ4:6Sd and caspase 3 activity was determined at 24 hours.
as §8

HCT116 cells = test: Viability of HCT116 colon cancer cells; format: cell-based; conditions: Homo sapiens, HCT-116; HCT116, 10 μM, 24 hours; read-out: viability, % of controls
Protocol: as §4

[9] = target: T1, murine Sphingosine Kinase 1 (SK1) (Mus musculus, UniProt Q8CI15); test: Phosphorylation by SK1 in extracts of HEK293 cells overexpressing SK1 (HPLC); format: biochemical; conditions: cell extracts preincubated for 10 minutes
T1 construct: expressed in transfected cells; host or cells: HEK293
Protocol: The formed phosphorylated sphingoid base products were measured by HPLC.
In order to test if preincubation with C14-So or C14Δ4:6Sd has an inhibitory effect on the ability of the SK enzyme to phosphorylate the C17-So compound, cell extracts were preincubated for 10 minutes with either C14-So or C14Δ4:6Sd followed by C17-So.

[10] = target: T2, human Sphingosine-1-Phosphate Lyase (SPL) (Homo sapiens, UniProt O95470); test: Cleavage by SPL in HEK 293 cells overexpressing SPL; format: biochemical
T2 construct: expressed in transfected cells; host or cells: HEK 293
T2 sequence (O95470 1-568): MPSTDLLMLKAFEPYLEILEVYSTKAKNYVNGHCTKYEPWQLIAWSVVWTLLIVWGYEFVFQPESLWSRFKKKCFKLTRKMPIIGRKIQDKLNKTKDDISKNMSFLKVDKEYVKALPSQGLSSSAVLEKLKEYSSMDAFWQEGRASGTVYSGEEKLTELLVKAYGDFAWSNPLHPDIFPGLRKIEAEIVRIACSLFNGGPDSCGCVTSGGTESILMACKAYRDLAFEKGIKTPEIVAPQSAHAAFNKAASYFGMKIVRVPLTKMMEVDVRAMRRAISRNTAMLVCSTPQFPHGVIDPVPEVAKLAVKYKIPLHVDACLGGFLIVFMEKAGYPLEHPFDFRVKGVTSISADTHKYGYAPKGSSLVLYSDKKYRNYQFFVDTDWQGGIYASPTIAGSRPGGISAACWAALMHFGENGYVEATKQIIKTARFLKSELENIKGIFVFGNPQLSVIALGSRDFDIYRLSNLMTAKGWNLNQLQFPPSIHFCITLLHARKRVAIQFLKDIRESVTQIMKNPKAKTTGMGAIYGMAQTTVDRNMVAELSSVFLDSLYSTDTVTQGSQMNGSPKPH

[11] = HT29, various concentrations, 24 hours
[12] = HT29 pretreated with inhibitor, 18 hour incubation with 10 μM

T1 sequence (Q8CI15 whole entry): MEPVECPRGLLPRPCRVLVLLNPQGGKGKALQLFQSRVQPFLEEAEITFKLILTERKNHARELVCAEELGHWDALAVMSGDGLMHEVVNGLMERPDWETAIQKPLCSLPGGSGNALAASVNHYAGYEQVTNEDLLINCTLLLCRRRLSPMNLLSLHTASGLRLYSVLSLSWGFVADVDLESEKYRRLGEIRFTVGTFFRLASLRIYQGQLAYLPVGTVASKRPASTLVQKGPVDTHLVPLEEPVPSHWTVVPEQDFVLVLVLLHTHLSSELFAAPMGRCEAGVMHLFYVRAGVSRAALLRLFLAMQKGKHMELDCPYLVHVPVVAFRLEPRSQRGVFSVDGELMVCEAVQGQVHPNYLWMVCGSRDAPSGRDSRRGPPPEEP

CCCCCCCCC/C=C/CC/C=C/C(O)C(N)CO (centres unmarked) [C18Δ4:8Sd]
phosphorylation of Akt (Akt): inhibited
phosphorylation of 4EBP (4EBP [1]): inhibited
cytotoxicity (viability) (HT29 cells [2]; [11]): cytotoxic

CCCCCCC/C=C/C=C/C(O)C(N)CO (centres unmarked) [C14Δ4:6Sd, 2-aminotetradeca-4,6-diene-1,3-diol]
inhibition of SK (SK): inhibit SK
viability at 10 µM (DLD1 cells): < 50%
4EBP phosphorylation in polyps in vivo (4EBP [3]): inhibited
conversion to the phosphorylated compound in intact cells (HT29 cells [4]; listed as C14 SDs): not converted to SD-phosphates
uptake rate compared with long chain sphingosine (HT29 cells [4]): faster
uptake rate by cells (HT29 cells [4]): taken up at equal rates
clearance / metabolism in cells after lipid removal (HT29 cells [4]): remains unaltered
clearance / metabolism in cells after lipid removal (HT29 cells [4]; listed as C14 SDs): remained in the cells for many hours
time remaining in cells after lipid removal (HT29 cells [4]; HT29, FIG. 3): 6 h
phosphorylation of Akt (Akt): inhibited
autophagosome formation (GFP-LC3) (SW480 cells [5]): autophagosome formation
phosphorylation of 4EBP (4EBP [1]): inhibited
LC3 activation (shift from LC3-1 to LC3-2) (LC3): autophagic activity
Luciferase activity (translational activity, protein synthesis) (protein synthesis): reduced by more than half
phosphorylation of 4EBP (4EBP [6]): reduced phosphorylation
size (diameter) of intestinal polyps (ApcMin/+ mice): reduced the size
number of intestinal polyps (ApcMin/+ mice; p<0.0027): significantly reduced
viability at 10 µM (SW480 cells [7]): < 50%
caspase 3 activity in combination with JNK inhibitor (JNK inhibitor 2) (HT29 cells [8]; [12]): not synergistic
caspase 3 activity in combination with MEK inhibitor (PD98059) (HT29 cells [8]; [12]): not synergistic
caspase 3 activity in combination with PI3K inhibitor LY294002 (HT29 cells [8]; [12]): synergistic
caspase 3 activity in combination with p38 inhibitor (SB20350) (HT29 cells [8]; [12]): not synergistic
caspase 3 activity / cell death in HT29 cells transfected with myr-Akt (HT29 cells [8]; constitutively active myristoylated Akt, 10 μM, 24 hours): protected against sphingadiene-induced cell death
dose and time dependence of cytotoxicity (HT29 cells [2]; HT29, various concentrations at 24 hours or 10 μM at various time points): dose- and time-dependent
cytotoxicity (viability) (HT29 cells [2]; [11]): cytotoxic
viability in combination with PI3K inhibitor wortmannin (HT29 cells [2]; HT29, various concentrations, 24 hours, MTT assay): synergistic
viability at 10 µM (HT29 cells [2]; Homo sapiens, HT-29, HT29, 10 μM, 24 hours, read-out: viability, % of controls): < 50%
viability at 10 µM (HCT116 cells): > 50%
inhibitory effect on phosphorylation of C17-So by SK [9]: no inhibitory effect was observed

CCCCCCCCCC=CC(O)C(N)COP(=O)(O)O (centres unmarked) [C14So-1P]
processing of C17So-1P following preincubation [10]: No significant difference

CCCCCC=CCCC=CC(O)C(N)CO (centres unmarked) [C14Δ4:8Sd]
cytotoxicity (viability) (HT29 cells [2]; [11]): cytotoxic

CCCCCCCCCCC/C=C/C=C/C(O)C(N)CO (centres unmarked) [C18Δ4:6Sd]
cytotoxicity (viability) (HT29 cells [2]; [11]): cytotoxic

CCCCCCCCCCCCC/C=C/[C@@H](O)[C@@H](N)CO [C14-So, reference compound]
conversion to the phosphorylated compound in intact cells (HT29 cells [4]): efficiently phosphorylated
uptake rate compared with long chain sphingosine (HT29 cells [4]): faster
uptake rate by cells (HT29 cells [4]): taken up at equal rates
clearance / metabolism in cells after lipid removal (HT29 cells [4]): completely metabolized
clearance / metabolism in cells after lipid removal (HT29 cells [4]; listed as C14 sphingosine): cleared from the cells in hours; also recorded: rapidly metabolized
inhibitory effect on phosphorylation of C17-So by SK [9]: no inhibitory effect was observed
